We go through 15 compounds from patent US9284358B2 (UNIVERSITY OF UTAH RESEARCH FOUNDATION, priority 2006, dated 2016).

The target of experiment [1] is T1, human α9α10 nAChR (Homo sapiens, UniProt Q9GZZ6+Q9UGM1).
T1 construct: expressed in transfected cells; host or cells: oocytes
As to the kind of experiment: cell-based.

Experiment [2] has as its target T2, α9α10 nAChR (Rattus norvegicus, UniProt P43144+Q9JLB5).
T2 construct: expressed in transfected cells; host or cells: oocytes
As to the kind of experiment: cell-based.

Positions of bridges follow the written chain, without caps; N, C: chain ends. Residues, ends and D or L forms follow the SMILES beside them.

T2 sequence (P43144 26-479 limits assumed): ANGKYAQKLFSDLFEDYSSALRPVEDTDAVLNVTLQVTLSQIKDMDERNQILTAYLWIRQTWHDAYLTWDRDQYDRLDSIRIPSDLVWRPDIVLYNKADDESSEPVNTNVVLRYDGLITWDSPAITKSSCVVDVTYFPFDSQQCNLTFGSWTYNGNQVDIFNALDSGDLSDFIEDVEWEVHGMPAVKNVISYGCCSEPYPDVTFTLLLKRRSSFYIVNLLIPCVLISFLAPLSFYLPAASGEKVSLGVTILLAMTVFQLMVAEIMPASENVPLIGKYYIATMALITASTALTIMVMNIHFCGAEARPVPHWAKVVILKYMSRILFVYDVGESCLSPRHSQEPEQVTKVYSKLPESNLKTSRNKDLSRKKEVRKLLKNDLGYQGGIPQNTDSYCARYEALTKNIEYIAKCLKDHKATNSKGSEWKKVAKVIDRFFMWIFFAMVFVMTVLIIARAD
T2 sequence (Q9JLB5 25-447 limits assumed): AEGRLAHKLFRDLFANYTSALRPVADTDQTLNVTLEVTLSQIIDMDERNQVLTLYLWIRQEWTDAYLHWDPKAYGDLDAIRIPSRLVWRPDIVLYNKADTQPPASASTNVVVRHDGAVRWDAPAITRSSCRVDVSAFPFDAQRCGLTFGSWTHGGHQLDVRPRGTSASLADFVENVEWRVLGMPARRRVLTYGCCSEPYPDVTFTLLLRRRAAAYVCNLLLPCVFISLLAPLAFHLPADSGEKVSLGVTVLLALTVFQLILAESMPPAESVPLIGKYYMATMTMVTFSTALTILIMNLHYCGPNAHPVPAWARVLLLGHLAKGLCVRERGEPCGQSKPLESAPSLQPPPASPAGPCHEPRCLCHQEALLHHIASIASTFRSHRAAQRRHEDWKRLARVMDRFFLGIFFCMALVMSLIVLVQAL
T1 sequence (Q9UGM1 26-479 limits assumed): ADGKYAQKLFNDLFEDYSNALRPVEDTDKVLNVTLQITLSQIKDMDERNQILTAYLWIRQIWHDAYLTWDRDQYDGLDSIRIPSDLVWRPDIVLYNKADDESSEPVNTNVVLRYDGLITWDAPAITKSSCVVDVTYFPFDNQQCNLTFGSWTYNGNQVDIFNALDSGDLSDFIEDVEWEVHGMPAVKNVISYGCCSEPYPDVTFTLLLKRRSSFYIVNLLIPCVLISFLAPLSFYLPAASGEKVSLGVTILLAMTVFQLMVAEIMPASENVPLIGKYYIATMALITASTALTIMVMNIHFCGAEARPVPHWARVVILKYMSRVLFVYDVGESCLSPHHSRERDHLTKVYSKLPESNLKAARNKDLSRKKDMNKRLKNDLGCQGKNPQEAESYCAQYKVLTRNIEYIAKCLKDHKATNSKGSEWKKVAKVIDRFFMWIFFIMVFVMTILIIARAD
T1 sequence (Q9GZZ6 25-450): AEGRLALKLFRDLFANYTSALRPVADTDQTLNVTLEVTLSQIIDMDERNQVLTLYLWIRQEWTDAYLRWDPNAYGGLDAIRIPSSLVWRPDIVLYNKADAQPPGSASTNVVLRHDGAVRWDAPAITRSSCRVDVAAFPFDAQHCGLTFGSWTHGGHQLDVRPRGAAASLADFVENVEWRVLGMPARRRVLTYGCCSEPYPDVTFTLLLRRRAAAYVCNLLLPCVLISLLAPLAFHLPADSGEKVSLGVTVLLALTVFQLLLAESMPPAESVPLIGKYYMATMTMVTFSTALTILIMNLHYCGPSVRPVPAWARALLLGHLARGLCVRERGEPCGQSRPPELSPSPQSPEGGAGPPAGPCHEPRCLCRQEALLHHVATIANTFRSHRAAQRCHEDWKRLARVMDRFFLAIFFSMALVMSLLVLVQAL

In the case of `C[C@@H](O)[C@@H]1NC(=O)[C@@H]2CSSC[C@@H](C(=O)N[C@@H](CCCNC(=N)N)C(=O)O)NC(=O)[C@H](CCCNC(=N)N)NC(=O)[C@H](Cc3ccc(O)cc3)NC(=O)[C@H](CCCNC(=N)N)NC(=O)[C@H](CSSC[C@H](NC(=O)CN)C(=O)N2)NC(=O)[C@H](CCCNC(=N)N)NC(=O)[C@@H]2CCCN2C(=O)[C@H](CC(=O)O)NC1=O` [SEQ ID NO:3], inhibition in experiment [1] was half-maximal at 281 nM (IC50).

As for `N=C(N)NCCC[C@H](NC(=O)[C@@H]1CSSC[C@@H]2NC(=O)[C@@H](NC(=O)CN)CSSC[C@H](NC(=O)[C@H](CCCNC(=N)N)NC(=O)[C@@H]3CCCN3C(=O)[C@H](CC(=O)O)NC(=O)[C@H](CO)NC2=O)C(=O)N[C@@H](CCCNC(N)=O)C(=O)N[C@@H](Cc2ccc(O)cc2)C(=O)N[C@@H](CCCNC(=N)N)C(=O)N1)C(=O)O` [SEQ ID NO:9], the IC50 in experiment [2] came to 2.4 nM; in experiment [1], 416 nM.

As for `N=C(N)NCCCC[C@@H]1NC(=O)[C@@H]2CSSC[C@H](NC(=O)CN)C(=O)N[C@@H](CSSC[C@@H](C(=O)N[C@@H](CCCNC(=N)N)C(=O)O)NC(=O)[C@H](CCCNC(=N)N)NC(=O)[C@H](Cc3ccc(O)cc3)NC1=O)C(=O)N[C@@H](CO)C(=O)N[C@@H](CC(=O)O)C(=O)N1CCC[C@H]1C(=O)N[C@@H](CCCNC(=N)N)C(=O)N2` [SEQ ID NO:11], the IC50 in experiment [2] and in experiment [1] was over 1000 nM each time.

Take `N=C(N)NCCC[C@H](NC(=O)[C@@H]1CSSC[C@@H]2NC(=O)[C@@H](NC(=O)CN)CSSC[C@H](NC(=O)[C@H](CCCNC(=N)N)NC(=O)[C@@H]3CCCN3C(=O)[C@H](CC(=O)O)NC(=O)[C@H](CO)NC2=O)C(=O)N[C@@H](CCCCN)C(=O)N[C@@H](Cc2ccc(O)cc2)C(=O)N[C@@H](CCCNC(=N)N)C(=O)N1)C(=O)O` [SEQ ID NO:14]: the IC50 in experiment [2] was over 1000 nM.

As for `N=C(N)NCCC[C@H](NC(=O)[C@@H]1CSSC[C@@H]2NC(=O)[C@@H](NC(=O)CN)CSSC[C@H](NC(=O)[C@H](CCCNC(=N)N)NC(=O)[C@@H]3CCCN3C(=O)[C@H](CC(=O)O)NC(=O)[C@H](CO)NC2=O)C(=O)N[C@@H](CCCNC(=N)N)C(=O)N[C@@H](Cc2c[nH]c3ccccc23)C(=O)N[C@@H](CCCNC(=N)N)C(=O)N1)C(=O)O` [SEQ ID NO:16] (H-GCCSDPRCRWRCR-OH; disulfide 2-8, 3-12), the figures for the IC50 in experiment [2] and in experiment [1] were 11 nM and 268 nM, respectively.

As to `N=C(N)NCCC[C@H](NC(=O)[C@@H]1CSSC[C@@H]2NC(=O)[C@@H](NC(=O)CN)CSSC[C@H](NC(=O)[C@H](CCCNC(=N)N)NC(=O)[C@@H]3CCCN3C(=O)[C@H](CC(=O)O)NC(=O)[C@H](CO)NC2=O)C(=O)N[C@@H](CCCNC(=N)N)C(=O)N[C@@H](Cc2ccccc2)C(=O)N[C@@H](CCCNC(=N)N)C(=O)N1)C(=O)O` [SEQ ID NO:17] (H-GCCSDPRCRFRCR-OH; disulfide 2-8, 3-12), the concentration for half-maximal inhibition (IC50) was 8 nM in experiment [2] and over 1000 nM in experiment [1].

Take `C[C@@H]1NC(=O)[C@@H]2CSSC[C@@H](C(=O)N[C@@H](CCCNC(=N)N)C(=O)O)NC(=O)[C@H](CCCNC(=N)N)NC(=O)[C@H](Cc3ccc(O)cc3)NC(=O)[C@H](CCCNC(=N)N)NC(=O)[C@H](CSSC[C@H](NC(=O)CN)C(=O)N2)NC(=O)[C@H](CCCNC(=N)N)NC(=O)[C@@H]2CCCN2C(=O)[C@H](CC(=O)O)NC1=O` [SEQ ID NO:20] (H-GCCADPRCRYRCR-OH; disulfide 2-8, 3-12): the IC50 in experiment [2] was 14.5 nM; in experiment [1], over 1000 nM.

In experiment [2], `N=C(N)NCCC[C@@H]1NC(=O)[C@H](Cc2ccc(O)cc2)NC(=O)[C@H](CCCNC(=N)N)NC(=O)[C@@H]2CSSC[C@H](NC(=O)CN)C(=O)N[C@@H](CSSC[C@@H](C(N)=O)NC1=O)C(=O)N[C@@H](CO)C(=O)N[C@@H](CC(=O)O)C(=O)N1CCC[C@H]1C(=O)N[C@@H](CCCNC(=N)N)C(=O)N2` [SEQ ID NO:21] (H-GCCSDPRCRYRC-NH2; disulfide 2-8, 3-12) gave an IC50 of 7.8 nM.

In experiment [2], `N=C(N)NCCC[C@H](NC(=O)[C@@H]1CSSC[C@@H]2NC(=O)[C@@H](NC(=O)CN)CSSC[C@H](NC(=O)[C@H](CCCNC(=N)N)NC(=O)[C@@H]3CCCN3C(=O)[C@H](CCC(=O)O)NC(=O)[C@H](CO)NC2=O)C(=O)N[C@@H](CCCNC(=N)N)C(=O)N[C@@H](Cc2ccc(O)cc2)C(=O)N[C@@H](CCCNC(=N)N)C(=O)N1)C(=O)O` [SEQ ID NO:22] (H-GCCSEPRCRYRCR-OH; disulfide 2-8, 3-12) displayed an IC50 of 6600 nM.

`CC(C)[C@@H]1NC(=O)[C@H](CC(=O)O)NC(=O)[C@H](CO)NC(=O)[C@@H]2CSSC[C@@H](C(=O)N[C@@H](CCCNC(=N)N)C(=O)O)NC(=O)[C@H](CCCNC(=N)N)NC(=O)[C@H](Cc3ccc(O)cc3)NC(=O)[C@H](CCCNC(=N)N)NC(=O)[C@H](CSSC[C@H](NC(=O)CN)C(=O)N2)NC(=O)[C@H](CCCNC(=N)N)NC1=O` [SEQ ID NO:23] (H-GCCSDVRCRYRCR-OH; disulfide 2-8, 3-12): the IC50 in experiment [2] was determined as 4100 nM.

Take `C[C@@H]1NC(=O)[C@@H]2CSSC[C@H](NC(=O)CN)C(=O)N[C@@H](CSSC[C@@H](C(=O)N[C@@H](CCCNC(=N)N)C(=O)O)NC(=O)[C@H](CCCNC(=N)N)NC(=O)[C@H](Cc3ccc(O)cc3)NC1=O)C(=O)N[C@@H](CO)C(=O)N[C@@H](CC(=O)O)C(=O)N1CCC[C@H]1C(=O)N[C@@H](CCCNC(=N)N)C(=O)N2` [SEQ ID NO:24] (H-GCCSDPRCAYRCR-OH; disulfide 2-8, 3-12): the IC50 in experiment [2] amounted to 13000 nM.

In experiment [2], `C[C@@H]1NC(=O)[C@@H]2CCCN2C(=O)[C@H](Cc2c[nH]cn2)NC(=O)[C@H](CO)NC(=O)[C@@H]2CSSC[C@@H](C(=O)N[C@@H](CCCNC(=N)N)C(=O)O)NC(=O)[C@H](CCCNC(=N)N)NC(=O)[C@H](Cc3ccc(O)cc3)NC(=O)[C@H](CCCNC(=N)N)NC(=O)[C@H](CSSC[C@H](NC(=O)CN)C(=O)N2)NC1=O` [SEQ ID NO:25] (H-GCCSHPACRYRCR-OH; disulfide 2-8, 3-12) showed an IC50 of over 10000 nM.

`N=C(N)NCCC[C@H](NC(=O)[C@@H]1CSSC[C@@H]2NC(=O)[C@@H](NC(=O)CN)CSSC[C@H](NC(=O)[C@H](CCCNC(=N)N)NC(=O)[C@@H]3CCCN3C(=O)[C@H](CC(=O)O)NC(=O)[C@H](CO)NC2=O)C(=O)N[C@@H](CCCNC(=N)N)C(=O)N[C@@H](Cc2ccc(O)cc2)C(=O)N[C@@H](CCC(N)=O)C(=O)N1)C(=O)O` [SEQ ID NO:32] (H-GCCSDPRCRYQCR-OH; disulfide 2-8, 3-12) yielded an IC50 in experiment [1] of 202 nM.

`N=C(N)NCCC[C@H](NC(=O)[C@@H]1CSSC[C@@H]2NC(=O)[C@@H](NC(=O)CN)CSSC[C@H](NC(=O)[C@H](CCCNC(=N)N)NC(=O)[C@@H]3CCCN3C(=O)[C@H](CC(=O)O)NC(=O)[C@H](Cc3ccc(O)cc3)NC2=O)C(=O)N[C@@H](CCCNC(=N)N)C(=O)N[C@@H](Cc2ccc(O)cc2)C(=O)N[C@@H](CCCNC(=N)N)C(=O)N1)C(=O)O` [SEQ ID NO:34] (H-GCCYDPRCRYRCR-OH; disulfide 2-8, 3-12) returned an IC50 in experiment [1] of over 1000 nM.

In experiment [1], `N=C(N)NCCC[C@H](NC(=O)[C@@H]1CSSC[C@@H]2NC(=O)[C@@H](NC(=O)CN)CSSC[C@H](NC(=O)[C@H](CCCNC(=N)N)NC(=O)[C@@H]3CCCN3C(=O)[C@H](CC(=O)O)NC(=O)[C@H](CO)NC2=O)C(=O)N[C@@H](CCCNC(=N)N)C(=O)N[C@@H](Cc2ccc(O)cc2)C(=O)N[C@@H](Cc2c[nH]cn2)C(=O)N1)C(=O)O` [SEQ ID NO:36] (H-GCCSDPRCRYHCR-OH; disulfide 2-8, 3-12) yielded an IC50 of over 1000 nM.

Usually IC50 stands for the concentration needed to halve the response being measured. Read a high IC50 as weaker potency.
